We go through 13 substances from US8178506B2, “Oligomeric compounds and compositions for use in modulation of small non-coding RNAs” (Regulus Therapeutics Inc., priority 2003, dated 2012).

In data set [1] the test system is HuVECs. Nature of the data set: Endothelial tube formation assay in HuVECs. To be noted: for % Activity Relative to UTC (tube formation): 75 nM oligomeric compound; for tube formation: 75 nM.
The test system of data set [2] is T47D cells. As to the kind of experiment: Caspase-3 activity assay (apoptosis) in T47D cells. To be noted: T47D cells, 200 nM oligomeric compound, 48 hours; experiment of Table 12.
The subject of data set [3] is IGFBP-1. Nature of the data set: IGFBP-1 mRNA expression in HepG2 cells. To be noted: Experiment 2, insulin treated: HepG2 cells transfected with oligomeric compound, 1 nM insulin for four hours; UTC + 1 nM insulin = 100. The class given is cell-based, human. The procedure:
(§1) Approximately 28 hours after transfection, the cells are subjected to serum starvation for a period of 12 to 16 hours, using serum-free growth medium. Following serum starvation, cells are treated with 1 nM insulin (insulin-treated) or are left untreated (basal conditions) for approximately four hours. At the same time, untreated control cells in both plates are treated with 100 nM insulin to determine the maximal insulin response. Following insulin treatment (forty-eight hours after transfection), total RNA is harvested from all samples, and the amount of total RNA from each sample is determined using a Ribogreen assay (Invitrogen Corporation, Carlsbad, Calif.). Real-time PCR is performed on the total RNA samples using primer/probe sets for three insulin responsive genes: insulin-like growth factor binding protein-1 (IGFBP-1), cytosolic PEPCK (PEPCK-C), and follistatin. Gene expression levels obtained by real-time PCR are normalized for total RNA content in the samples.
(§2) Oligomeric compounds of the present invention were tested for their effects on insulin signaling in HepG2 cells. HepG2 cells were plated at 7500 cells/well in collagen coated 96-well plates. The following day, cells were transfected with oligomeric compounds targeting miRNAs using 100 nM oligomeric compound in LIPOFECTIN™ (Invitrogen Corporation, Carlsbad, Calif.) in two 96-well plates. The oligomeric compounds were tested in triplicate on each 96-well plate, except for positive and negative controls, which were measured up to six times per plate. At the end of transfection, the transfection medium was replaced by regular growth medium. Twenty-eight hours post-transfection, the cells were subjected to overnight (sixteen to eighteen hours) serum starvation using serum free growth medium. Forty-four hours post-transfection, the cells in the transfected wells were treated with either no insulin (“basal” Experiment 1, for identification of insulin-mimetic compounds) or with 1 nM insulin (“insulin treated” Experiment 2, for identification of insulin sensitizers) for four hours. At the same time, in both plates, cells in some of the un-transfected control wells are treated with 100 nM insulin to determine maximal insulin response. At the end of the insulin or no-insulin treatment (forty-eight hours post-transfection), total RNA is isolated from both the basal and insulin treated (1 nM) 96-well plates, and the amount of total RNA from each sample is determined using a Ribogreen assay (Molecular Probes, Eugene, Oreg.). Real-time PCR is performed on all the total RNA samples using primer/probe sets for three insulin responsive genes: PEPCK-c, IGFBP-1 and follistatin. Expression levels for each gene are normalized to total RNA, and values+standard deviation are expressed relative to the transfectant only untreated control (UTC) and negative control compounds.
(§3) Protocols for treatment of HepG2 cells and transfection of oligomeric compounds are as described in Example 18. Also as described in Example 18, forty-four hours post-transfection, the cells in the transfected wells were treated with either no insulin (“basal” Experiment 3 (below), for identification of insulin-mimetic compounds) or with 1 nM insulin (“insulin treated” Experiment 4 (below), for identification of insulin sensitizers) for four hours. At the same time, in both plates, cells in some of the un-transfected control wells are treated with 100 nM insulin to determine maximal insulin response. At the end of the insulin or no-insulin treatment (forty-eight hours post-transfection), total RNA is isolated from both the basal and insulin treated (1 nM) 96-well plates, and the amount of total RNA from each sample is determined using a Ribogreen assay (Molecular Probes, Eugene, Oreg.).

Data set [4] relates to follistatin. As to the kind of experiment: Follistatin mRNA expression in HepG2 cells. The class given is cell-based, human. To be noted: Experiment 2, insulin treated: HepG2 cells transfected with oligomeric compound, 1 nM insulin for four hours; UTC + 1 nM insulin = 100. The procedure:
as §1, §2, §3

Data set [5] relates to BJ, B16-F10, T47D, T47Dp53 and HeLa cells. Nature of the data set: Cell cycle assay (propidium iodide flow cytometry), cell line panel. The class given is cell-based. To be noted: 150 nM oligomeric compound, 4.5 μg/ml LIPOFECTIN, after 72 hours, propidium iodide flow cytometry. A general note: A flow cytometer gives signals particle by particle.
Data set [6] concerns HeLa cells. Nature of the data set: Cell cycle assay in HeLa cells. The class given is cell-based, human. To be noted: HeLa cells, 150 nM oligomeric compound.
Data set [7] relates to PEPCK-c. As to the kind of experiment: PEPCK-c mRNA expression in HepG2 cells. The class given is cell-based, human. As to conditions: Experiment 2, insulin treated: HepG2 cells transfected with oligomeric compound, 1 nM insulin for four hours; UTC + 1 nM insulin = 100. The procedure:
as §1, §2, §3

The mark [8] stands for this setting: 24 hours, relative to untreated control (UTC = 100).
The mark [9] stands for this setting: 48 hours after treatment, relative to untreated control (UTC=100).

In the oligonucleotide strings, read from the 5' end, every base follows the letter of its sugar. An asterisk marks phosphorothioate; unmarked linkages are phosphodiester. Other units and linkages are bracketed, terminal groups are in braces. A string of capitals states the bases alone. e = 2'-O-(2-methoxyethyl) (MOE); [5mC] = 5-methylcytosine; d = 2'-deoxy (DNA)

“327947 (antisense eT*e[5mC]*eA*eG*eT*eT*eA*eT*e[5mC]*eA*e[5mC]*eA*eG*eT*eA*e[5mC]*eT*eG*eT*eA) [compound 327947]”: in data set [1] (Table 58), the “% Activity Relative to UTC (tube formation)” value (from here on “% Activity Relative to UTC”) was 81.5%.

For the substance “328396 (antisense e[5mC]*eT*eG*eG*eT*dT*dG*dG*dG*dT*dA*dT*dG*dA*dG*eA*e[5mC]*eA*eG*eA) [compound 328396]”, the “Fold Increase over UTC (caspase-3 activity, apoptosis)” value in data set [2] is recorded as 0.8 fold. Besides, the “IGFBP1 mRNA expression” value in data set [3] is 128. In addition, the “Follistatin mRNA expression” value in data set [4] was determined as 135. Also, in data set [5], the “G1 (percentage of cells in phase of the cell cycle)” value is given as 56.8%, the “G2/M (percentage of cells in phase of the cell cycle)” value is listed as 15%, the “S (percentage of cells in phase of the cell cycle)” value was 28.2% and the “SubG1 (percentage of cells in phase of the cell cycle)” value was 4.6%. For the same substance, the “aneuploid (percentage of cells)” value in data set [5] amounted to 19.8%. Also, in data set [6] (setting [8]), the “% cells aneuploid” value worked out at 88%, the “% cells in cell cycle phase G1” value is listed as 94%, the “% cells in cell cycle phase G2/M” value amounted to 139% and the “% cells in cell cycle phase S” value came out at 87%. The “% cells in cell cycle phase subG1” value in data set [6] (setting [8]) is recorded as 97%. Further, in data set [6] (setting [9]), the “% cells in cell cycle phase: G1” value stood at 89%, the “% cells in cell cycle phase: G2/M” value amounted to 119%, the “% cells in cell cycle phase: S” value is listed as 114% and the “% cells in cell cycle phase: aneuploid” value amounted to 129%. Moreover, in data set [6] (setting [9]), the “% cells in cell cycle phase: subG1” value is 88%. For the same substance, the “PEPCKc mRNA expression” value in data set [7] worked out at 65.

Regarding “342672 (antisense eA*eT*eA*e[5mC]*e[5mC]*eG*e[5mC]*eG*eA*eT*e[5mC]*eA*eG*eT*eG*e[5mC]*eA*eT*e[5mC]*eT*eT*eT) [compound 342672]”, the “% Activity Relative to UTC” value in data set [1] (Table 56) amounted to 46.4%; in data set [1] (Table 57), 58.6%; in data set [1] (Table 58) it was 55.6%; in data set [1] (Table 59) it was 60.0%.

In the case of “CCGGCTGCAACACAAGACACGA (anti-miR; chemistry not fully specified) [ISIS 327958]”, the tube formation entry in data set [1] is given as “suppressed tube formation”.

In the case of “GCTGAGTGTAGGATGTTTACA (anti-miR; chemistry not fully specified) [ISIS 327948]”, the tube formation result in data set [1] is “suppressed tube formation”.

For “ATCCAATCAGTTCCTGATGCAGTA (chemistry not given here) [ISIS 327966]”, in data set [1], the tube formation result was “suppressed tube formation”.

Regarding “327875 (antisense eA*e[5mC]*eA*eA*e[5mC]*e[5mC]*eA*eG*e[5mC]*eT*eA*eA*eG*eA*e[5mC]*eA*e[5mC]*eT*eG*e[5mC]*e[5mC]*eA) [compound 327875]”, in data set [1] (Table 56), the “% Activity Relative to UTC” value is on record as 71.4%.

Consider “AAAGTGTCAGATACGGTGTGG (anti-miR; chemistry not fully specified) [ISIS 327944]”, for which the tube formation result in data set [1] is recorded as “suppressed tube formation”.

Turning to “327932 (antisense eA*eG*eG*e[5mC]*eA*eT*eA*eG*eG*eA*eT*eG*eA*e[5mC]*eA*eA*eA*eG*eG*eG*eA*eA) [compound 327932]”, the “% Activity Relative to UTC” value in data set [1] (Table 58) is given as 51.9%.

Turning to “327948 (antisense eG*e[5mC]*eT*eG*eA*eG*eT*eG*eT*eA*eG*eG*eA*eT*eG*eT*eT*eT*eA*e[5mC]*eA) [compound 327948]”, the “% Activity Relative to UTC” value in data set [1] (Table 59) was 33.3%.

For the substance “327915 (antisense eA*e[5mC]*eA*eT*eG*eG*eT*eT*eA*eG*eA*eT*e[5mC]*eA*eA*eG*e[5mC]*eA*e[5mC]*eA*eA) [compound 327915]”, the “% Activity Relative to UTC” value in data set [1] (Table 57) worked out at 69.0%.

For the substance “327882 (antisense eT*e[5mC]*eA*e[5mC]*eT*eT*eT*eT*eG*eT*eG*eA*e[5mC]*eT*eA*eT*eG*e[5mC]*eA*eA) [compound 327882]”, in data set [1] (Table 56), the “% Activity Relative to UTC” value is on record as 107.1%.

Regarding “327884 (antisense eG*e[5mC]*eA*eA*eA*eA*eA*eT*eG*eT*eG*e[5mC]*eT*eA*eG*eT*eG*e[5mC]*e[5mC]*eA*eA*eA) [compound 327884]”, the “% Activity Relative to UTC” value in data set [1] (Table 56) is recorded as 78.6%.
